Read-outs that look alike come from different tables or passages of the source. No end group written: not given here.
Experiments:
[1] = system: E. coli ML-35p; assay: Kinetics of permeabilization of the outer bacteria membrane (nitrocefin); assay type: cell-based, Escherichia coli
Experimental: (§1) The ability of the antimicrobial peptides for the respective permeabilization of the outer and inner bacteria membrane was tested by way of example on E. coli ML-35p (made available by Dr. R. E. Lehrer, Center for Health Sciences, Los Angeles, Calif., USA). The peptides were incubated in serial dilution with E. coli ML-35p and the time-dependent release of cell-internal components was measured in a slightly modified protocol according to Ericsson et al. (2002). For this purpose, the bacteria were cultured in Luria-Bertani (LB) medium with 100 μg/ml ampicillin (Fluka, Taufkirchen, Germany) until reaching an optical density of 0.4 at 600 nm wavelength. Then, the cells were washed three times by centrifugation at 4000 g for 1 min and subsequent up-take in 10 mM HEPES buffer pH 7.2. Finally, the cells were diluted to an optical density of 0.3 at 600 nm wavelength. To measure the permeabilization of the outer membrane, nitrocefin (Merck, Darmstadt, Germany) was diluted in HEPES buffer to a concentration of 60 μg/ml. The antimicrobial peptides were diluted in HEPES buffer to an end concentration of 12 μM, 24 μM, 48 μM and 96 μM end concentration. In the next step, 50 μl of nitrocefin were admixed with 50 μl of antimicrobial peptide and 50 μl of bacteria suspension such that an end concentration of 20 μg/ml of nitrocefin, 4 μM to 32 μM of antimicrobial peptide and bacteria with an optical density of 0.1 to 600 nm were present. The samples were mixed and the absorption at 500 nm wavelength was measured directly over a period of at least 90 min at 37° C. with regular shaking in a FLUOstar omega Microplate Reader (BMG Labtech, Ortenberg, Germany). The investigation of the permeabilization of the inner membrane was carried out in the same way except that instead of the nitrocefin accordingly 0-nitrophenyl-beta-D-galactoside (ONPG, Sigma-Aldrich) in an end concentration of 100 μg/ml was used and the absorption change was determined at a wavelength of 420 nm. The control used was samples without antimicrobial peptide, the positive control used for the membrane permeabilization was polymyxin B (Sigma-Aldrich) in an end concentration of 5 μM. For the data evaluation, firstly the measurement values of the corresponding negative controls were deducted from the measurement values of the samples, and the difference was then divided by the corresponding measurement values of the permeabilization control. Then, a graphical evaluation was carried out, the calculated values being plotted against the peptide concentration and being fitted with the help of the Origin Pro 8.1 G Software (OriginLab) according to a sigmoidal model.
(§2) As comparison parameter between the peptides, the times were ascertained from this at which 50% of the final signal level was reached. For this purpose, the equation with the percentage membrane permeabilization y, the time x in minutes, the lower plateau A1, the upper plateau A2, the point of inflection Log X0 and the Hill incline p
(§3) [formula] was used. The calculation of the parameters A1, A2, Log X0 and p was performed by the program by reference to the compensating curve. Further resolution of equation 5.1 for the case y=50 then produced for x the desired time at which the half-maximum signal level was reached.

[2] = system: E. coli ML-35p; assay: Kinetics of permeabilization of the inner bacteria membrane (ONPG); assay type: cell-based, Escherichia coli
Experimental: as §1, with “model. As representative examples, FIGS. 4 and 5 show the graphical evaluation for the kinetic investigation of the permeabilization of the outer E. coli bacteria membrane for the peptides N4 (FIG. 4) and O1 (FIG. 5).” for “model.”
as §2, §3

[3] = system: human histiocytic lymphoma cell line U937; assay: Long-term growth inhibition, minimum toxic concentration (MTC)
Experimental: The cytotoxic potential of the antimicrobial peptides was determined by way of example by reference to the human histiocytic lymphoma cell line U937 (DSMZ). The influence of the peptides on the permeability of the cell membrane and their longer-term growth-inhibiting effect was investigated. 15 ml of RPMI 1640 medium with 2 mM glutamine and 10% FCS (Biochrom, Berlin, Germany) were inoculated with 1·10^5 cells per ml and cultivated for three days at 37° in T75 cell culture bottles (TPP, Trasadingen, Switzerland) with constant gassing with 5% CO2 in a climatically controlled chamber. The medium was admixed with 10 U/ml penicillin and […] streptomycin (both AppliChem, Darmstadt, Germany) to avoid bacterial contaminations, with no further antibiotics being added during the subsequent recultivation. Before each experiment, the cells were washed by centrifugation at 100 g for five minutes and subsequent resuspension in RPMI 1640 medium with 2 mM glutamine and 10% FCS in each case two times and adjusted to a concentration of 1·10^5 cells per ml. Finally, in each case 100 μl of the U937 cells were transferred to the reaction chambers of a sterile 96-well polypropylene microtiter plate and admixed with in each case 100 μl of a prediluted antimicrobial peptide in RPMI 1640 medium without antibiotic addition, such that end concentrations of in each case 5·10^4 cells per ml at peptide concentrations between 0.25 μM and 64 μM were present. The negative control used was samples without antimicrobial peptide, while Triton X-100 (AppliChem) was used in an end concentration of 5% as positive control for the permeabilization. The samples were cultivated for two hours at 37° C. and with continuous gassing with 5% CO2 in a climatically controlled chamber. Then, in each case 100 μl of each sample were removed and transferred to new sterile microtiter plates for determining the direct membrane damage. The remaining 100 μl of the samples were cultivated for at least four further days.
For this purpose, 10 μl of lysing solution were added to in each case 100 μl of cell suspension and incubated for 60 minutes at 37° C. Then, the cell culture supernatants were investigated as described above. The lowest peptide concentration at which complete suppression of the cell growth was established after four days was stipulated as the minimum toxic concentration (MTC).

[4] = system: E. coli DH5α; settings: DH5α, 18 h
Experimental: (§4) The minimum inhibitory concentration (MIC) of the peptides was carried out by way of example against gram(−) E. coli DH5α (and gram(+) Staphylococcus xylosus (both Deutsche Sammlung von Mikroorganismen and Zellkulturen, DSMZ) in a standardized microdilution method according to the general guidelines of the CLSI (Clinical and Laboratory Standards Institute 2006) and EUCAST (European Committee for Antimicrobial Susceptibility Testing of the European Society of Clinical Microbiology and Infectious Diseases 2003) with slight adaptations to the investigation of cationic antimicrobial peptides (Wiegand et al. 2008). The bacteria cells were cultivated in Mueller-Hinton-Boullion (MHB) to an optical density of 0.4 to 0.6 at 600 nm wavelength, corresponding to about 4·10^8 bacteria per ml. Then, the bacteria cultures were diluted to a bacteria concentration of about 1·10^5 bacteria per ml in sterile MHB. Using the peptides, series of 2-fold dilutions starting at 128 μM to the smallest dilution of 0.5 μM in MHB were prepared. The peptide dilutions were mixed with the dilute bacteria cultures in a […] in the chambers of a 96-well polypropylene microtiter plate (Starlab, Hamburg, Germany), so that the peptides were present in an end concentration between 64 μM and 0.25 μM at a bacteria concentration of 5·10^4 bacteria/ml. Sterile MHB served as negative control, and the positive control used as the corresponding bacteria concentration in MHB without the addition of peptide. The microtiter plates were incubated for 18 hours at 37° C. with shaking at 120 rpm in a climatically controlled chamber. After the incubation, the bacteria concentration was determined by renewed absorption measurement at a wavelength of 600 nm.

[5] = system: Staphylococcus xylosus; settings: 18 h
Experimental: as §4

[6] = system: human histiocytic lymphoma cell line U937; assay: Cytotoxicity, direct membrane damage (CytoTox 96), LD50; assay type: cell-based; settings: U937, two hours at 37° C., 0.25-64 μM
Experimental: The direct membrane damage was investigated with the help of the CytoTox 96 Non-Radioactive Cytotoxicity Assay (Promega, Mannheim, Germany). For this purpose, the cells were sedimented at 100 g for ten minutes at 4° C., and 50 μl of the resulting culture supernatant were added to 50 μl of the CytoTox substrate mix. After an incubation time of 30 minutes in the dark at room temperature, 50 μl of the CytoTox stopping solution were added to the sample and the absorption was measured at 490 nm. To determine the LD50 value, the measurement value of the negative control was deducted from the absorption values and divided by the measurement value of the permeabilization control. The calculated values were plotted graphically against the peptide concentration and fitted using the Origin pro 8.1 G Software according to a sigmoidal model and the LD50 values were ascertained from this. The calculation was carried out analogously to example 5 by reference to the solution of equation 5.1 for the case y=50, where y in this case corresponds to the relative cytotoxicity in percent and x corresponds to the peptide concentration in μM. Representative graphical evaluations of LD50 values are shown in FIG. 6 by reference to the measurement results for the reference peptides BMAP-27, protamine and KL-helix, and also the peptide O1 according to the invention.

Row | Substance | MIC E. coli [4] [µM] | MIC S. xylosus [5] [µM] | Toxicity LD50 [6] [µM] | Toxicity MTC (minimum toxic concentration) [3] [µM] | other results
1 | GRFKRFRKKFKKLFKKLSPVIPLLHLG-OH [BMAP-27] | – | – | – | – | Outer membrane, time to 50% of final signal ([1]; 4 μM peptide): <1 min; Outer membrane, time to 50% of final signal ([1]; 8 μM peptide): <1 min; Outer membrane, time to 50% of final signal ([1]; 16 μM peptide): <1 min; Outer membrane, time to 50% of final signal ([1]; 32 μM peptide): <1 min; Inner membrane, time to 50% of final signal ([2]; 4 μM peptide): 16 min; Inner membrane, time to 50% of final signal ([2]; 8 μM peptide): 9 min; Inner membrane, time to 50% of final signal ([2]; 16 μM peptide): 7 min; Inner membrane, time to 50% of final signal ([2]; 32 μM peptide): 5 min; Toxicity MTC (minimum toxic concentration) ([3]; U937, complete suppression of cell growth after four days): 4.0 µM
2 | KRKLILKRILIKRK [A2] | 16 | 8 | >64 | >64 | –
3 | KRKSGSGSKRK [M6] | >64 | >64 | >64 | >64 | –
4 | LIKRK [N8, LIKRK] | >64 | >64 | >64 | >64 | –
5 | LILIKRK [N6, LILIKRK] | >64 | >64 | >64 | >64 | –
6 | LILKRKRKRKRILI [A5] | >64 | >64 | >64 | >64 | –
7 | RKILILIKRK [N3] | 16 | 4 | >64 | >64 | –
8 | RKLILKRKRILIKR [A3] | 16 | 8 | >64 | >64 | –
9 | RKRKILILIKRK [N2] | 8 | 2 | >64 | >64 | –
10 | RKRKLILILIKRKR [A1] | 8 | 0.5 | >64 | >64 | –
11 | RRRVVVVVRRR [S5] | 32 | 2 | >64 | >64 | –

Source: patent US10556926B2, “Synthetic artificial peptides with antimicrobial effect” (priority 2014, dated 2020)
